For assay [1], the system named is Bacteria. The assay is described as follows: Inhibition of bacterial NDM1 expressed in Escherichia coli BL21 (DE3) expressing pET-24a-blaNDM-1 assessed as potentiation of meropenem-induced antibacterial activity by measuring reduction in meropenem MIC incubated at 37 degC for 18 hrs by spectrophotometry based checkerboard microdilution assay.
Assay [2] deals with Bacteria. The assay is described as follows: Inhibition of bacterial NDM1 expressed in Escherichia coli BL21 (DE3) expressing pET-24a-blaNDM-1 assessed as potentiation of cefotaxime-induced antibacterial activity by measuring reduction in cefotaxime MIC incubated at 37 degC for 18 hrs by spectrophotometry based checkerboard microdilution assay.
Assay [3] has as its system Bacteria. Nature of the assay: Inhibition of bacterial NDM1 expressed in Escherichia coli BL21 (DE3) expressing pET-24a-blaNDM-1 assessed as potentiation of ampicillin-induced antibacterial activity by measuring combination MIC at >256 ug/ml incubated at 37 degC for 18 hrs by spectrophotometry based checkerboard microdilution assay.
Assay [4] relates to Bacteria. The assay is described as follows: Inhibition of bacterial NDM1 expressed in Escherichia coli BL21 (DE3) expressing pET-24a-blaNDM-1 assessed as potentiation of ampicillin-induced antibacterial activity by measuring combination MIC at 256 ug/ml incubated at 37 degC for 18 hrs by spectrophotometry based checkerboard microdilution assay.
Assay [5] concerns Bacteria. The assay is described as follows: Inhibition of bacterial NDM1 expressed in Escherichia coli BL21 (DE3) expressing pET-24a-blaNDM-1 assessed as potentiation of meropenem-induced antibacterial activity by measuring combination MIC at 16 ug/ml incubated at 37 degC for 18 hrs by spectrophotometry based checkerboard microdilution assay.
In assay [6] the test system is Bacteria. The assay is described as follows: Inhibition of bacterial NDM1 expressed in Escherichia coli BL21 (DE3) expressing pET-24a-blaNDM-1 assessed as potentiation of meropenem-induced antibacterial activity by measuring combination MIC at 0.25 ug/ml incubated at 37 degC for 18 hrs by spectrophotometry based checkerboard microdilution assay.
The test system of assay [7] is Bacteria. Nature of the assay: Inhibition of bacterial NDM1 expressed in Escherichia coli BL21 (DE3) expressing pET-24a-blaNDM-1 assessed as potentiation of cefazolin-induced antibacterial activity by measuring combination MIC at 256 ug/ml incubated at 37 degC for 18 hrs by spectrophotometry based checkerboard microdilution assay.
For assay [8], the system named is Bacteria. The assay is described as follows: Inhibition of bacterial NDM1 expressed in Escherichia coli BL21 (DE3) expressing pET-24a-blaNDM-1 assessed as potentiation of cefotaxime-induced antibacterial activity by measuring combination MIC at 4 ug/ml incubated at 37 degC for 18 hrs by spectrophotometry based checkerboard microdilution assay.
Assay [9] concerns Bacteria. Nature of the assay: Inhibition of bacterial NDM1 expressed in Escherichia coli BL21 (DE3) expressing pET-24a-blaNDM-1 assessed as potentiation of cefotaxime-induced antibacterial activity by measuring combination MIC at 0.25 ug/ml incubated at 37 degC for 18 hrs by spectrophotometry based checkerboard microdilution assay.
The target in assay [10] is Beta-lactamase NDM-1 (Escherichia coli) (UniProt E5KIY2). Nature of the assay: Inhibition of NDM1 in Escherichia coli clinical isolates assessed as potentiation of meropenem -induced antibacterial activity by measuring combination MIC at 32 ug/ml incubated at 37 degC for 18 hrs by spectrophotometry based checkerboard microdilution assay.
In assay [11] the test system is Bacteria. Nature of the assay: Inhibition of bacterial NDM1 expressed in Escherichia coli BL21 (DE3) expressing pET-24a-blaNDM-1 assessed as potentiation of ampicillin-induced antibacterial activity by measuring fractional inhibitory concentration index at >256 ug/ml incubated at 37 degC for 18 hrs by spectrophotometry based checkerboard microdilution assay.
Assay [12] deals with Bacteria. Nature of the assay: Inhibition of bacterial NDM1 expressed in Escherichia coli BL21 (DE3) expressing pET-24a-blaNDM-1 assessed as potentiation of cefazolin-induced antibacterial activity by measuring fractional inhibitory concentration index at >256 ug/ml incubated at 37 degC for 18 hrs by spectrophotometry based checkerboard microdilution assay.
Assay [13] has as its system Bacteria. The assay is described as follows: Inhibition of bacterial NDM1 expressed in Escherichia coli BL21 (DE3) expressing pET-24a-blaNDM-1 assessed as potentiation of cefazolin-induced antibacterial activity by measuring fractional inhibitory concentration index at 256 ug/ml incubated at 37 degC for 18 hrs by spectrophotometry based checkerboard microdilution assay.

Assay [14] deals with Bacteria. Nature of the assay: Inhibition of bacterial NDM1 expressed in Escherichia coli BL21 (DE3) expressing pET-24a-blaNDM-1 assessed as potentiation of cefotaxime-induced antibacterial activity by measuring fractional inhibitory concentration index at 4 ug/ml incubated at 37 degC for 18 hrs by spectrophotometry based checkerboard microdilution assay.
The test system of assay [15] is Bacteria. The assay is described as follows: Inhibition of bacterial NDM1 expressed in Escherichia coli BL21 (DE3) expressing pET-24a-blaNDM-1 assessed as potentiation of cefotaxime-induced antibacterial activity by measuring fractional inhibitory concentration index at 0.25 ug/ml incubated at 37 degC for 18 hrs by spectrophotometry based checkerboard microdilution assay.

Assay [16] deals with Beta-lactamase NDM-1 (Escherichia coli) (UniProt E5KIY2). Nature of the assay: Inhibition of NDM1 in Escherichia coli clinical isolates assessed as potentiation of ampicillin-induced antibacterial activity by measuring combination MIC at 128 ug/ml incubated at 37 degC for 18 hrs by spectrophotometry based checkerboard microdilution assay.
Assay [17] has the same target. The assay is described as follows: Inhibition of NDM1 in Escherichia coli clinical isolates assessed as potentiation of meropenem -induced antibacterial activity by measuring combination MIC at 2 ug/ml incubated at 37 degC for 18 hrs by spectrophotometry based checkerboard microdilution assay.
For assay [18] the target is unchanged. The assay is described as follows: Inhibition of NDM1 in Escherichia coli clinical isolates assessed as potentiation of cefazolin-induced antibacterial activity by measuring combination MIC at >256 ug/ml incubated at 37 degC for 18 hrs by spectrophotometry based checkerboard microdilution assay.
Assay [19] has the same target. Nature of the assay: Inhibition of NDM1 in Escherichia coli clinical isolates assessed as potentiation of cefotaxime-induced antibacterial activity by measuring combination MIC at >256 ug/ml incubated at 37 degC for 18 hrs by spectrophotometry based checkerboard microdilution assay.
Assay [20] has the same target. The assay is described as follows: Inhibition of NDM1 in Escherichia coli clinical isolates assessed as potentiation of ampicillin-induced antibacterial activity by measuring fractional inhibitory concentration index at 128 ug/ml incubated at 37 degC for 18 hrs by spectrophotometry based checkerboard microdilution assay.
Assay [21] shares this target. The assay is described as follows: Inhibition of NDM1 in Escherichia coli clinical isolates assessed as potentiation of meropenem -induced antibacterial activity by measuring fractional inhibitory concentration index at 32 ug/ml incubated at 37 degC for 18 hrs by spectrophotometry based checkerboard microdilution assay.
For assay [22] the target is unchanged. Nature of the assay: Inhibition of NDM1 in Escherichia coli clinical isolates assessed as potentiation of meropenem -induced antibacterial activity by measuring fractional inhibitory concentration index at 2 ug/ml incubated at 37 degC for 18 hrs by spectrophotometry based checkerboard microdilution assay.
The target is the same in assay [23]. Nature of the assay: Inhibition of NDM1 in Escherichia coli clinical isolates assessed as potentiation of cefazolin-induced antibacterial activity by measuring fractional inhibitory concentration index at >256 ug/ml incubated at 37 degC for 18 hrs by spectrophotometry based checkerboard microdilution assay.
For assay [24] the target is unchanged. The assay is described as follows: Inhibition of NDM1 in Escherichia coli clinical isolates assessed as potentiation of cefotaxime-induced antibacterial activity by measuring fractional inhibitory concentration index at >256 ug/ml incubated at 37 degC for 18 hrs by spectrophotometry based checkerboard microdilution assay.

As for `C=CCn1c(S)nnc1-c1ccccc1O`, the fold change (FC) worked out at 16 in the assay with Bacteria [1] and 4 in the assay with Bacteria [2]. The MIC with Bacteria [3] is 1020 µg/mL; in the assay on Bacteria [4], 0.0625 µg/mL; in the assay with Bacteria [5], 0.25 µg/mL; in the assay on Bacteria [6], 0.5 µg/mL; in the assay with Bacteria [7] it was 1 µg/mL; with Bacteria [8] it was 2 µg/mL. Further, the MIC stood at 4 µg/mL in the assay on Bacteria [9]; 32 µg/mL in [10]; 16 µg/mL in [16]; 64 µg/mL in assay [17]; 2050 µg/mL in assay [18]; 1020 µg/mL in [19]. Also, the fractional inhibitory concentration index (FICI) in the assay on Bacteria [11] is greater than 1; with Bacteria [12] it was greater than 1; with Bacteria [13] it was less than 0.625; in the assay with Bacteria [14], less than 0.258; in the assay with Bacteria [15] it was less than 0.505; in assay [20], less than 0.375. Further, the fractional inhibitory concentration index (FICI) is less than 0.313 in assay [21], less than 0.504 in assay [22], greater than 1 in [23] and greater than 1 in assay [24].

The record behind these values is ChEMBL document CHEMBL4130619, “Structure-Based Virtual Screening for the Discovery of Novel Inhibitors of New Delhi Metallo-β-lactamase-1” (ACS Med Chem Lett, 2018).
